Assay results from ChEMBL document CHEMBL4483862, “Open-source discovery of chemical leads for next-generation chemoprotective antimalarials” (2018).
pIC50: −log10 of the molar value.

System: Plasmodium berghei
Assay: Luciferase/luciferin-expressing antifolate-resistant parasites were used to infect a culture of HepG2 cells that were pre-incubated with compounds. Infected hepatocytes emit light due to the luciferase reaction. Assay results are presented as the percent inhibition of light emission compared to control. […]
Assay type: functional
Conditions: sporozoite; for IC90: read-out: LUCIFERASE INFECTION ASSAY - IC90

| SMILES | IC90 | further results |
| --- | --- | --- |
| Cc1nc(C(=O)NNC(=O)c2c(-c3c(Cl)cccc3Cl)noc2C)cs1 | 3.12 µM | pIC50 (HEPG2TOX_HILL_SLOPE 1.49, HEPG2TOX_R_SQUARED 0.872, PBLUC_HILL_SLOPE 12.3, PBLUC_R_SQUARED 0.357, read-out: LUCIFERASE INFECTION ASSAY - IC50): 5.58 |
| Cc1nc2ccccn2c1-c1ccnn1S(=O)(=O)c1ccc(F)cc1 | 3.78 µM | pIC50 (HEPG2TOX_HILL_SLOPE 1.46, HEPG2TOX_R_SQUARED 0.888, PBLUC_HILL_SLOPE 12.2, PBLUC_R_SQUARED 0.241, read-out: LUCIFERASE INFECTION ASSAY - IC50): 5.50 |
| Oc1ccc(CN2CCN(c3ccccn3)CC2)c2cccnc12 | > 10 µM | pIC50 (HEPG2TOX_HILL_SLOPE 1.46, HEPG2TOX_R_SQUARED 0.941, PBLUC_HILL_SLOPE 3.25, PBLUC_R_SQUARED 0.21, read-out: LUCIFERASE INFECTION ASSAY - IC50): 5.10 |
| COc1ccc(C(=O)/C=C/c2cc(Br)c(OCC(=O)N(C)C)c(OC)c2)c(OC)c1 | 4.46 µM | pIC50 (HEPG2TOX_HILL_SLOPE 1.45, HEPG2TOX_R_SQUARED 0.95, PBLUC_HILL_SLOPE 1.66, PBLUC_R_SQUARED 0.857, read-out: LUCIFERASE INFECTION ASSAY - IC50): 5.92 |
| Cc1ccc(-n2c(C)cc(C(=O)Cn3nc(C)c(C)c(C#N)c3=O)c2C)cc1C | > 10 µM | pIC50 (HEPG2TOX_HILL_SLOPE 1.5, HEPG2TOX_R_SQUARED 0.806, PBLUC_HILL_SLOPE 3.65, PBLUC_R_SQUARED 0.115, read-out: LUCIFERASE INFECTION ASSAY - IC50): 5.01 |
| CCn1c2ccccc2c2nnc(SCC(=O)c3cc(C)n(C)c3C)nc21 | > 10 µM | pIC50 (HEPG2TOX_HILL_SLOPE 1.47, HEPG2TOX_R_SQUARED 0.958, read-out: LUCIFERASE INFECTION ASSAY - IC50): < 5.00 |
| Brc1ccc(-[n+]2nc(-c3ccccc3)nn2-c2nn[nH]n2)cc1 | 4.45 µM | pIC50 (HEPG2TOX_HILL_SLOPE 1.48, HEPG2TOX_R_SQUARED 0.648, PBLUC_HILL_SLOPE 2.42, 13.8, PBLUC_R_SQUARED 0.208, 0.342, read-out: LUCIFERASE INFECTION ASSAY - IC50): 5.59 |
| Cc1ccc(Cn2nc(C)c(/C=C/C(=O)N3CCN(S(=O)(=O)c4cccs4)CC3)c2C)cc1 | > 10 µM | pIC50 (HEPG2TOX_HILL_SLOPE 1.48, HEPG2TOX_R_SQUARED 0.941, PBLUC_HILL_SLOPE 12.2, PBLUC_R_SQUARED 0.462, read-out: LUCIFERASE INFECTION ASSAY - IC50): 5.02 |
| CCCn1c(C)cc(/C=C(\C#N)C(=O)Nc2ccc3c(c2)OCO3)c1C | 2.3 µM | pIC50 (HEPG2TOX_HILL_SLOPE 1.46, HEPG2TOX_R_SQUARED 0.846, PBLUC_HILL_SLOPE 2.22, PBLUC_R_SQUARED 0.625, read-out: LUCIFERASE INFECTION ASSAY - IC50): 6.07 |
| Cc1cc(C)c2cc(C(=O)Nc3ccc(N4CCN(C)CC4)nc3)[nH]c2c1 | 3.64 µM | pIC50 (HEPG2TOX_HILL_SLOPE 1.47, HEPG2TOX_R_SQUARED 0.9, PBLUC_HILL_SLOPE 16.4, PBLUC_R_SQUARED 0.482, read-out: LUCIFERASE INFECTION ASSAY - IC50): 5.50 |
| Cc1nnsc1C(=O)Nc1nc(C(F)(F)F)c(-c2ccccc2)s1 | > 8.91 µM | pIC50 (HEPG2TOX_HILL_SLOPE 1.46, HEPG2TOX_R_SQUARED 0.922, PBLUC_HILL_SLOPE 11.5, PBLUC_R_SQUARED 0.414, read-out: LUCIFERASE INFECTION ASSAY - IC50): 5.10 |
| COc1cc(-c2ccc(N3CCN(c4ccncc4)CC3)nc2)cc(OC)c1OC | > 8.12 µM | pIC50 (HEPG2TOX_HILL_SLOPE 1.45, HEPG2TOX_R_SQUARED 0.424, PBLUC_HILL_SLOPE 3.58, PBLUC_R_SQUARED 0.452, read-out: LUCIFERASE INFECTION ASSAY - IC50): 5.22 |
| COc1cc(/C=C/C(=O)Oc2c(Cl)cc(Cl)c3ccc(C)nc23)cc(OC)c1OC | 3.54 µM | pIC50 (HEPG2TOX_HILL_SLOPE 1.48, HEPG2TOX_R_SQUARED 0.88, PBLUC_HILL_SLOPE 12.1, PBLUC_R_SQUARED 0.667, read-out: LUCIFERASE INFECTION ASSAY - IC50): 5.53 |
| CC(C)NC(=O)c1c(NC(=O)c2cccc(C#N)c2)nc2ccccn12 | 7.68 µM | pIC50 (HEPG2TOX_HILL_SLOPE 1.47, HEPG2TOX_R_SQUARED 0.952, PBLUC_HILL_SLOPE 19.2, PBLUC_R_SQUARED 0.401, read-out: LUCIFERASE INFECTION ASSAY - IC50): 5.16 |
| COc1ccc(Nc2ccn3ncc(-c4ccc(OC)c(OC)c4)c3n2)cn1 | 1.73 µM | pIC50 (HEPG2TOX_HILL_SLOPE 1.44, HEPG2TOX_R_SQUARED 0.951, PBLUC_HILL_SLOPE 2.71, PBLUC_R_SQUARED 0.798, read-out: LUCIFERASE INFECTION ASSAY - IC50): 6.11 |
| Cc1ccc(NC(=O)N2CCCN(c3nc4ccc(Cl)cc4s3)CC2)cc1 | > 8.23 µM | pIC50 (HEPG2TOX_HILL_SLOPE 1.45, HEPG2TOX_R_SQUARED 0.845, PBLUC_HILL_SLOPE 2.38, PBLUC_R_SQUARED 0.538, read-out: LUCIFERASE INFECTION ASSAY - IC50): 5.44 |

| SMILES | IC90 | further results |
| --- | --- | --- |
| COc1ccc(-c2cnn3ccc(NCc4cccnc4)nc23)cc1OC | 5.49 µM | pIC50 (HEPG2TOX_HILL_SLOPE 1.45, HEPG2TOX_R_SQUARED 0.956, PBLUC_HILL_SLOPE 2.78, PBLUC_R_SQUARED 0.698, read-out: LUCIFERASE INFECTION ASSAY - IC50): 5.60 |
| N#C/C(=N\Nc1cccc(Cl)c1)C(=O)c1cc(-c2ccccc2)c(C(F)(F)F)s1 | 1.5 µM | pIC50 (HEPG2TOX_HILL_SLOPE 1.47, HEPG2TOX_R_SQUARED 0.986, PBLUC_HILL_SLOPE 2.41, PBLUC_R_SQUARED 0.872, read-out: LUCIFERASE INFECTION ASSAY - IC50): 6.22 |
| COc1ccc(-c2csc3ncnc(NCCCCCc4n[nH]c(N)c4C#N)c23)cc1 | 3.53 µM | pIC50 (HEPG2TOX_HILL_SLOPE 1.47, HEPG2TOX_R_SQUARED 0.942, PBLUC_HILL_SLOPE 36.2, PBLUC_R_SQUARED 0.623, read-out: LUCIFERASE INFECTION ASSAY - IC50): 5.48 |
| Cc1ccc(Cl)cc1N1CCN(C(=O)NCc2ccco2)CC1 | > 10 µM | pIC50 (HEPG2TOX_HILL_SLOPE 1.45, HEPG2TOX_R_SQUARED 0.763, PBLUC_HILL_SLOPE 1.12, PBLUC_R_SQUARED 0.27, read-out: LUCIFERASE INFECTION ASSAY - IC50): 5.22 |
| CCCn1c(SCC(=O)N(C)C(C)c2nc3ccccc3s2)nc2sc3c(c2c1=O)CCC3 (configuration not stated) | 3.37 µM | pIC50 (HEPG2TOX_HILL_SLOPE 1.5, HEPG2TOX_R_SQUARED 0.705, PBLUC_HILL_SLOPE 172, PBLUC_R_SQUARED 0.534, read-out: LUCIFERASE INFECTION ASSAY - IC50): 5.48 |
| CCC(=O)c1cn(S(=O)(=O)c2ccc(C)cc2)c2ccccc12 | 3.32 µM | pIC50 (HEPG2TOX_HILL_SLOPE 1.47, HEPG2TOX_R_SQUARED 0.948, PBLUC_HILL_SLOPE 16.3, PBLUC_R_SQUARED 0.746, read-out: LUCIFERASE INFECTION ASSAY - IC50): 5.54 |
| Nc1c(C(=O)c2ccccc2)sc(Nc2ccccc2)c1C(=O)Nc1ccc(SC(F)F)cc1 | 1.28 µM | pIC50 (HEPG2TOX_HILL_SLOPE 1.49, HEPG2TOX_R_SQUARED 0.921, PBLUC_HILL_SLOPE 11.4, PBLUC_R_SQUARED 0.694, read-out: LUCIFERASE INFECTION ASSAY - IC50): 5.98 |
| COc1ccc(C=C(c2nc3ccccc3s2)c2nc3ccccc3s2)c(OC)c1OC | > 10 µM | pIC50 (HEPG2TOX_HILL_SLOPE 1.46, HEPG2TOX_R_SQUARED 0.78, PBLUC_HILL_SLOPE 2.12, PBLUC_R_SQUARED 0.479, read-out: LUCIFERASE INFECTION ASSAY - IC50): 5.15 |
| Cc1ccc(-c2nc(C(=O)NC3CC3)cc3c2[nH]c2ccccc23)cc1 | 7.38 µM | pIC50 (HEPG2TOX_HILL_SLOPE 1.45, HEPG2TOX_R_SQUARED 0.961, PBLUC_HILL_SLOPE 3.11, PBLUC_R_SQUARED 0.33, read-out: LUCIFERASE INFECTION ASSAY - IC50): 5.44 |
| CC(C)(C)C1CCc2[nH]c(=O)sc2C1 (configuration not stated) | 1.31 µM | pIC50 (HEPG2TOX_HILL_SLOPE 1.45, HEPG2TOX_R_SQUARED 0.907, PBLUC_HILL_SLOPE 17.6, PBLUC_R_SQUARED 0.512, read-out: LUCIFERASE INFECTION ASSAY - IC50): 5.94 |
| Cc1nc(NCc2ccc(N3CCN(C)CC3)nc2)c2c(-c3ccccc3)csc2n1 | 3.73 µM | pIC50 (HEPG2TOX_HILL_SLOPE 1.47, HEPG2TOX_R_SQUARED 0.785, PBLUC_HILL_SLOPE 14.9, PBLUC_R_SQUARED 0.788, read-out: LUCIFERASE INFECTION ASSAY - IC50): 5.49 |
| Cc1nnsc1C(=O)Nc1cc(C(F)(F)F)cc(C(F)(F)F)c1 | 1.4 µM | pIC50 (HEPG2TOX_HILL_SLOPE 1.48, HEPG2TOX_R_SQUARED 0.897, PBLUC_HILL_SLOPE 8.57, PBLUC_R_SQUARED 0.681, read-out: LUCIFERASE INFECTION ASSAY - IC50): 5.97 |
| CCc1ccc(NC(=O)COc2c(Cl)cc(Cl)c3ccc(C)nc23)cc1 | 1.31 µM | pIC50 (HEPG2TOX_HILL_SLOPE 1.5, HEPG2TOX_R_SQUARED 0.996, PBLUC_HILL_SLOPE 3.18, PBLUC_R_SQUARED 0.331, read-out: LUCIFERASE INFECTION ASSAY - IC50): 6.18 |
| N#C/C(=N\Nc1ccc(OC(F)(F)F)cc1)C(=O)C1CC1 | > 11.1 µM | pIC50 (HEPG2TOX_HILL_SLOPE 1.44, HEPG2TOX_R_SQUARED 0.96, PBLUC_HILL_SLOPE 2.87, PBLUC_R_SQUARED 0.372, read-out: LUCIFERASE INFECTION ASSAY - IC50): 5.13 |
| O=C1NC(=O)/C(=C\c2ccc(Cl)c(Cl)c2)N1 | 5.37 µM | pIC50 (HEPG2TOX_HILL_SLOPE 1.44, HEPG2TOX_R_SQUARED 0.948, PBLUC_HILL_SLOPE 2.09, PBLUC_R_SQUARED 0.686, read-out: LUCIFERASE INFECTION ASSAY - IC50): 5.73 |
